{"source": "patent US20090082427A1", "about": "“Composition comprising wortmannin and its topical use for reducing human hair growth” (Reckitt Benckiser (UK) Limited, priority 2005, published 2009)", "type_in_all_cases": "cell-based, human", "key": {"dermal fibroblasts": {"test_system": "dermal fibroblasts", "experiment": "cell proliferation of dermal fibroblasts, cell number after 8 days", "details": "wortmannin 70 μm in medium, CV (medium + DMSO vehicle) = 100", "procedure": "(§1) A study was carried out to assess the effects of wortmannin on cell proliferation for dermal fibroblasts, follicular dermal papilla fibroblasts derived from 5 normal adults (3 females and 2 males).\n(§2) A composition was prepared comprising wortmannin at 10 milli-molar in a vehicle of dimethyl sulfoxide (DMSO). The levels of wortmannin were such that when the composition was added to the growth medium in the experiments, the level of wortmannin in the experimental medium was 50, 70, 100 or 140 micro-molar and the respective level of DMSO was 0.5%, 0.7%, 1.0%, 1.4% by weight.\n(§3) The control experiments were carried out using as the growth medium CM (control medium only as detailed below) and CV (control medium containing the DMSO vehicle but free of wortmannin). The experiments using the wortmannin composition were carried out using the wortmannin compositions in the control medium.\n(§4) For experiments with dermal fibroblasts and follicular dermal papilla fibroblasts, Control Medium was RPMI 1640 media supplemented with penicillin/streptomycin, L-glutamine and Foetal Calf Serum.\n(§5) Results in terms of percentage cell number change after 8 days of the cells/follicles in the compositions were as follows in table 1."}, "[1]": {"test_system": "Anagen (IV) intact hair follicles", "experiment": "growth of isolated intact Anagen (IV) hair follicles, length increase after 8 days", "details": "CM 26, CV 9", "procedure": "A study was carried out to assess the effects of wortmannin on growth of Anagen (IV) intact hair follicles isolated intact from 2 females.\nas §2, §3\nFor experiments with intact hair follicle, Control Medium was Williams E medium supplemented with fungizone, penicilin/streptomycin, L-glutamine, insulin-like growth factor and hydrocortisone.\nas §5"}, "[2]": {"test_system": "hair follicle keratinocytes", "experiment": "cell proliferation of hair follicle keratinocytes, cell number after 8 days", "details": "CV = 100", "procedure": "A study carried out to assess the effects of wortmannin on cell proliferation for hair follicle keratinocytes was performed on cells from 1 normal healthy individual.\nas §2, §3\nFor experiments with hair follicle keratinocytes, Control Medium was keratinocyte serum-free medium (KSF-M) medium supplemented with penicillin/streptomycin, L-glutamine, epidermal growth factor and bovine pituitary extract.\nas §5"}, "[3]": {"test_system": "follicular dermal papilla fibroblasts", "experiment": "cell proliferation of follicular dermal papilla fibroblasts, cell number after 8 days", "details": "wortmannin 70 μm in medium, CV = 100", "procedure": "as §1, §2, §3, §4, §5"}}, "data": [{"compound": "COC[C@H]1OC(=O)c2coc3c2[C@@]1(C)C1=C(C3=O)[C@@H]2CCC(=O)[C@@]2(C)C[C@H]1OC(C)=O", "note": "[wortmannin, 11-(acetyloxy)-1,6b,7,8,9a,10,11,11b-octahydro-1-(methoxymethyl)-9a,11b-di-methyl-[1S-(1α, 6bα,9aβ,11α, 11bβ)]-3H-furo[4,3,2-de]indeno[4,5-h]-2-benzopyran-3,6,9-trione]", "values": [{"measurement": "Dermal fibroblasts percentage cell number (normalized on CV results)", "setting": "dermal fibroblasts", "result": 25, "unit": "%"}, {"measurement": "Whole hair follicles (length increase in %)", "setting": "[1]; wortmannin 70 μm in medium", "result": 4, "unit": "%"}, {"measurement": "Whole hair follicles (length increase in %)", "setting": "[1]; wortmannin 140 μm in medium", "result": 4, "unit": "%"}, {"measurement": "Hair follicle keratinocytes percentage cell number (normalized on CV results)", "setting": "[2]; wortmannin 50 μm in medium", "result": 75, "unit": "%"}, {"measurement": "Hair follicle keratinocytes percentage cell number (normalized on CV results)", "setting": "[2]; wortmannin 70 μm in medium", "result": 40, "unit": "%"}, {"measurement": "Hair follicle keratinocytes percentage cell number (normalized on CV results)", "setting": "[2]; wortmannin 100 μm in medium", "result": 30, "unit": "%"}, {"measurement": "dermal papilla fibroblasts percentage cell number (normalized on CV results)", "setting": "[3]", "result": 34, "unit": "%"}]}]}
